Test results reported in patent publication US20240093213A1, “PROCESSES, SYSTEMS AND MEDIA FOR DELIVERING A SUBSTANCE TO A PLANT” (EPIGENETICA LIMITED, priority 2020, published 2024).

Experiments:
[1] = system: Cannabis (Cs) apical cuttings; experiment: Plant growth regulators delivered with ONB in hydroponics, plant growth; format: in vivo, Cannabis sativa; details: ONB compared to tap water as delivery system; 14 days hydroponics
Experimental: Hydroponic experiments were set up in glasshouse conditions: day temp. 25° C., night temp. 18° C., 16/8 h day/night and 150 μmol m^−2 s^−1 light intensity. Cannabis (Cs) apical cuttings were treated with Gibberellic acid A3 (GA3; Duchefa, G0907) at 12 mg/L final concentration, similar to Mansouri et al. (2011) or with DL-carnitine hydrochloride (Merck S7021474 Cas-No 461-05-2, 8.41774.0025) at 1 mM/L final concentration, as in Signem Oney-Birol (2019).
All solutions were prepared first in buckets, pH adjusted to 6.0. The liquid feed (Canna coco A+B) was added at the concentration: 4 mL of coco A and 4 mL of coco B per 1 L water; electric conductivity EC=2.0 mS/cm. Next the solutions were run through a fine bubble generator (Anzaikantetsu Co, AZ-FB-20ASVV) with a 0.75 standard litres per minute (SLPM) O2 flow and 800 L/H water flow. Each 25 L bucket was run for 30 min through the nozzle. EC and pH were checked and adjusted to the right level daily. Plants were grown in hydroponics for 14 days. Plant growth was monitored and compared to controls. Plant growth was determined by measurement of major growth parameters including plant height, whole plant fresh weight and number of stems. […]

[2] = system: lettuce (Lactuca sativa); experiment: Ultrasonic fogging of leaves with air nanobubble water, fresh weight; format: in vivo; details: var. Tango, 14 days, fog from air nanobubble water, source solution 1.65 mg/L
Experimental: Seedlings of various lettuce varieties (Lactuca sativa) were exposed to ultrasonic fog generated from water that contained air nanobubbles carrying MVOCs.
Albuterol Sulfate 98.5% (Spectrum Chemical, New Brunswick, NJ, USA) was diluted in tap water at 1.65 mg/L. Five litres was then placed in a container that was pressurized by an air compressor at 1.3 bar. Gas flow from the pressurized container was directed to a nanobubble generator installed in a recirculating flow of water totaling 60 L. After a minimum of 2 hr treatment, 4 L of nanobubble treated water was removed from the recirculating system and placed in a rectangular plastic reservoir with a total capacity of 6 L. A three head ultrasonic fog generator was then placed in the reservoir, and the reservoir was placed in an enclosed plant growth chamber. Seeds of lettuce (Lactuca sativa, var. Tango) were planted in 2.5 cm square cells filled with ProMix growing media. Upon shoot emergence, seedlings were placed in the growth chamber and fog treatments began. A ‘control’ group of plants was placed in a different section of the growth chamber that was not subjected to any treatment. Growing parameters within the chambers were maintained at levels suitable for the crop, including a photoperiod of 16 hr/day. […] After 14 days, all plants were harvested and fresh weight recorded.

Compound | Plant height and biomass [1] | Average increase in weight compared to control plants [2]
C[N+](C)(C)CC(O)CC(=O)O.[Cl-] (racemic) [DL-carnitine, DL-carnitine hydrochloride] | Increased plant height and biomass | –
C=C1C[C@]23C[C@@]1(O)CC[C@H]2[C@@]12C=C[C@H](O)[C@@](C)(C(=O)O1)[C@H]2[C@@H]3C(=O)O [gibberellic acid, Gibberellic acid A3] | Increased plant height and biomass | –
Albuterol Sulfate | – | over 30%
